Results taken from paper PMC4714855, “Prediction of T Cell Epitopes from Leishmania major Potentially Excreted/Secreted Proteins Inducing Granzyme B Production” (PLoS ONE, 2016).

Experiments:
[1] = target: T1, HLA-A*0201 molecules on T2 cells (Homo sapiens, UniProt P04439, D140Y/D185E/D98H/E176V/E277Q/G131W/G231S/I119V/I121R/I166T/I218V/L300P/L318F/N151K/N90K/P208A/P217A/Q86G/Q94H/R138H/R169H/T345S); assay: class I HLA stabilization assay on T2 cells (flow cytometry, anti-HLA-A2 antibody); type: cell-based; details: for relative fluorescence intensity (RFI), percentage increase of mean fluorescence above negative controls: T2 cells, β2-microglobulin 10μg/mL, peptide 10μg/mL (Fig 1 legend: 100μg/mL), 16h 37°C, then Brefeldin A 2h; for affinity for HLA-A2 molecule (stabilization on T2 cells), class in words: T2 cell stabilization assay
T1 construct: endogenous in cells; host or cells: T2 cells
Procedure: The affinity of peptides for HLA-A*0201 molecules was evaluated by using the stabilization assay as previously described. Briefly, T2 cells were incubated with human β2-microglobulin at a final concentration of 10μg/mL in the presence or not of peptides at 10μg/mL for 16h at 37°C in 5% CO2. Cells were then incubated with 5μg/mL Brefeldin A (Sigma-Aldrich, St. Louis, MO) for 2h at 37°C. Expression of HLA-A*0201 on T2 cells was then determined by staining with fluorescein isothiocyanate-labelled anti-HLA-A2 antibody (BD Biosciences, San Jose, CA) and analyzed by flow cytometry using FACScan (BD Biosciences, San Jose, CA). Results were expressed in relative fluorescence intensity (RFI) calculated as the percentage increase of the mean fluorescence above that of the negative controls.
The sequence of 33 different clones of potentially ES proteins has been used. Based on computer software predictions, putative class I HLA-restricted T cell epitopes were identified. Twenty proteins were able to generate a total of 78 nonameric peptides that could be loaded by HLA-A*0201 molecule (Table 2). Subsequently, we have evaluated the binding affinity of these peptides to HLA-A*0201 molecules by class I HLA stabilization assay. This assay measures the increase of HLA-A*0201 molecules induced on T2 cells following exposure to exogenous HLA-A*0201 binding peptides, with high affinity peptides inducing HLA-A*0201 up-regulation more strongly than low-affinity peptides. Individual results are shown on Fig 1A. The 78 tested peptides were classified into 3 groups regarding the percentage of RFI.
Fig 1 Binding affinity of LmES peptides to HLA-A*0201 molecules. The affinities of selected peptides were determined by class I HLA stabilization assay. (A) Results for individual peptides. T2 cells were initially incubated with 100μg (final concentration) of each of the peptides/mL for 16h at 37°C, followed by incubation at 37°C for 2h in presence of Brefeldine A. HLA-A2 expression on these cells was analyzed by flow cytometry using the BB7.2 antibody. MHC stabilization efficiency for each peptide was calculated as the percentage increase of the mean fluorescence above that of the negative controls. Results were expressed as relative fluorescence intensity (RFI). (B) Box plot results. ++: RFI ranges from 200 to 300%, +: RFI ranges from 100 to 200%, and -: RFI ranges from 0 to 100%.

PBMCs = assay: Granzyme B production by stimulated PBMCs (ELISA of culture supernatants); type: cell-based, human; details: PBMCs of 3 HLA-A*0201+ and 3 HLA-A*0201- immune (healed ZCL) donors, peptide 20μg/mL, 5 days; 24 peptides tested
Procedure: To assess whether the selected peptides could stimulate or not CD8^+ T cells, we have analysed the induction of GrB and IFN-γ by stimulated PBMCs from healed ZCL individuals. PBMCs separated from heparinized blood samples using Ficoll-Hypaque (Sigma-Aldrich, St. Louis, MO) density gradient centrifugation were resuspended in RPMI 1640 medium (Sigma-Aldrich, St. Louis, MO) supplemented with 2mM L-Glutamine (Sigma-Aldrich, St. Louis, MO), 1mM sodium pyruvate (Gibco, Invitrogen, Grand Island, NY), 100U/mL Penicillin (Sigma-Aldrich, St. Louis, MO), 100μg/mL Streptomycin (Sigma-Aldrich, St. Louis, MO), 10mM HEPES (Gibco, Invitrogen, Grand Island, NY), 20μg/mL Gentamicin (Gibco, Invitrogen, Grand Island, NY), 1X non-essential amino acids (Gibco, Invitrogen, Grand Island, NY), 2-mercaptoethanol (Gibco, Invitrogen, Grand Island, NY), and 10% (v/v) heat-inactivated human AB serum (Sigma-Aldrich, St. Louis, MO), [complete medium] at a concentration of 1.0x10^6 cells/mL. Peptide pools were prepared instantly by dilution with phosphate buffered saline and then added to the cell culture at a final concentration of 1μg/mL. In some experiments, peptides were added separately to the culture at a concentration of 20μg/mL. As positive control, PBMCs were stimulated with 10ng/mL of phorbol 12-myristate 13-acetate (PMA) (Sigma-Aldrich, St. Louis, MO) and 50ng/mL Ionomycin (Sigma-Aldrich, St. Louis, MO). All cultures were incubated at 37°C in 5% CO2 for 5 days. Culture supernatants were then harvested and frozen at -80°C until use.
Granzyme B (GrB), IFN-γ, and IL-10 levels in culture supernatants were quantified with an enzyme-linked immunosorbent (ELISA) assay (MABTECH AB, Nacka Strand, Sweden) for the first one and OptEIA set ELISA assay kit (BD Biosciences, San Jose, CA) for the others. The results were expressed as pg/mL based on the standards provided by the kits. Quantification thresholds were fixed to 100pg/mL for GrB, 45pg/mL for IFN-γ, and 20pg/mL for IL-10.
Fig 2 Peptides grouped in pools induced GrB production. (A) PBMCs from 5 HLA-A*0201^+-donors with a history of ZCL in response to stimulation with peptide pools at a final concentration of 1μg/mL per peptide or (B) SLA (10μg/mL) and PMA/Ionomycin (10ng/mL and 50ng/mL, respectively) as positive controls. GrB production was assessed in culture supernatants using ELISA. (C) Rank of the peptide pools. +: mean pool rank, -: median.
Fig 3 GrB induction by the selected peptides. (A) PBMCs from HLA-A*0201^+ (black mark) and HLA-A*0201^- (white mark) -healed ZCL individuals were stimulated with selected peptides separately. The supernatant was collected after 5 days of incubation and assayed for GrB production.

With “ELLGNLEEV [D6, nonamer … from L. major ES protein Pr 31]” the “relative fluorescence intensity (RFI), percentage increase of mean fluorescence above negative controls” value [1] was greater than 200%.

In the case of “FMEVFGMLV [G2, nonamer … from L. major ES protein Pr 78]”, the “GrB induction by individual peptides” value (PBMCs) is reported as “highest levels of GrB”, the “affinity for HLA-A2 molecule (stabilization on T2 cells), class in words” value (“affinity for HLA-A2 molecule” below) [1] is reported as “high” and the “relative fluorescence intensity (RFI), percentage increase of mean fluorescence above negative controls” value [1] is reported as greater than 200%.

In the case of “MLLWTAVAV [E1, nonamer … from L. major ES protein Pr 37]”, the “relative fluorescence intensity (RFI), percentage increase of mean fluorescence above negative controls” value [1] is reported as greater than 200%.

In the case of “MLVQSCTSI [G3, nonamer … from L. major ES protein Pr 78]”, the “GrB induction by individual peptides” value (PBMCs) is reported as “highest levels of GrB”, the “affinity for HLA-A2 molecule” value [1] is reported as “high” and the “relative fluorescence intensity (RFI), percentage increase of mean fluorescence above negative controls” value [1] is reported as greater than 200%.

In the case of “PLSPATRRL [E6, nonamer … from L. major ES protein Pr 38]”, the “GrB induction by individual peptides” value (PBMCs) is reported as “highest levels of GrB”.

With “SLQFSAFLL [G1, nonamer … from L. major ES protein Pr 78]” the “relative fluorescence intensity (RFI), percentage increase of mean fluorescence above negative controls” value [1] was greater than 200%.

In the case of “TLGVKQMVV [F6, nonamer … from L. major ES protein Pr 74 (elongation factor 1-alpha)]”, the “GrB induction by individual peptides” value (PBMCs) is reported as “highest levels of GrB”, the “affinity for HLA-A2 molecule” value [1] is reported as “high” and the “relative fluorescence intensity (RFI), percentage increase of mean fluorescence above negative controls” value [1] is reported as greater than 200%.

In the case of “VVSVLTHSV [G4, nonamer … from L. major ES protein Pr 78]”, the “GrB induction by individual peptides” value (PBMCs) is reported as “highest levels of GrB” and the “affinity for HLA-A2 molecule” value [1] is reported as “intermediate”.

For “YLRTFPAAL [E2, nonamer … from L. major ES protein Pr 37]”, the “GrB induction by individual peptides” value (PBMCs) was “highest levels of GrB” and the “affinity for HLA-A2 molecule” value [1] was “intermediate”.
